Results as given in patent US20230146455A1, “TREATMENT OF INFLAMMATORY DISEASES WITH PEPTIDES AND PHARMACEUTICAL COMPOSITIONS” (Yuyu Pharma, Inc., priority 2020, published 2023).
Where “and” joins values, the source holds several entries; their conditions need not be identical. Identical values can stand only once. Where a SMILES comes first, the peptide text is derived from it. [ ]: non-standard residue; d: D form. Hyp = O=C(O)[C@@H]1C[C@@H](O)CN1

What was measured:
IL-1 beta/IL-1F2 = experiment: Example 8 main study Luminex, LPS hPBMCs: IL-1 beta/IL-1F2; assay type: cell-based, human
Protocol: (§1) Human PBMCs were pretreated with YY-101, YDE-011, YDE-043 or reference compound; Xiidra® at various concentration (ranging from […] to 500 nM) for 2 h before stimulation. An equal volume of 0.5% DMSO was used as a vehicle control. Then, the cells were treated with LPS at 5 ug/ml, which was selected based on the pilot study. The supernatants from treated cells were harvested at 24 h and placed in a 96 well for Luminex cytokine & chemokine profiling using a Luminex 200 multiplex assay (Luminex; R&D system, USA).
(§2) The main study arm with triplicate wells per group in a 24-well plate: • 1. Blank • 2. PBMC: 0.5% DMSO • 3. PBMC+LPS (5 ug/ml) • 4. PBMC+YY-101 500 nM • 5. PBMC+YY-101 50 nM • 6. PBMC+YY-101 5 nM • 7. PBMC+YY-101 0.5 nM • 8. PBMC+LPS (5 ug/ml)+Xiidra® 500 nM • 9. PBMC+LPS (5 ug/ml)+Xiidra® 50 nM • 10. PBMC+LPS (5 ug/ml)+Xiidra® 5 nM • 11. PBMC+LPS (5 ug/ml)+Xiidra® 0.5 nM • 12. PBMC+LPS (5 ug/ml)+Xiidra® 0.05 nM • 13. PBMC+LPS (5 ug/ml)+Xiidra® 0.005 nM • 14. PBMC+LPS (5 ug/ml)+YY-101 500 nM • 15. PBMC+LPS (5 ug/ml)+YY-101 50 nM • 16. PBMC+LPS (5 ug/ml)+YY-101 5 nM • 17. PBMC+LPS (5 ug/ml)+YY-101 0.5 nM • 18. PBMC+LPS (5 ug/ml)+YY-101 0.05 nM • 19. PBMC+LPS (5 ug/ml)+YY-101 0.005 nM • 20. PBMC+LPS (5 ug/ml)+YDE-011 500 nM • 21. PBMC+LPS (5 ug/ml)+YDE-011 50 nM • 22. PBMC+LPS (5 ug/ml)+YDE-011 5 nM • 23. PBMC+LPS (5 ug/ml)+YDE-011 0.5 nM • 24. PBMC+LPS (5 ug/ml)+YDE-011 0.05 nM • 25. PBMC+LPS (5 ug/ml)+YDE-011 0.005 nM • 26. PBMC+LPS (5 ug/ml)+YDE-043 500 nM • 27. PBMC+LPS (5 ug/ml)+YDE-043 50 nM • 28. PBMC+LPS (5 ug/ml)+YDE-043 5 nM • 29. PBMC+LPS (5 ug/ml)+YDE-043 0.5 nM • 30. PBMC+LPS (5 ug/ml)+YDE-043 0.05 nM • 31. PBMC+LPS (5 ug/ml)+YDE-043 0.005 nM
(§3) Multiplex assay was used to measure 30 cytokines and chemokines. The 1:200 diluted cell supernatant and serial dilution of the standard were dispensed into a 96 well plate at 50 ul/well. Then, the pre-mixed cocktail of antibody-coated magnetic beads was dispensed at 50 ul/well and incubated at room temperature for 2 h in a horizontal orbital microplate shaker at 800±500 rpm. The beads were washed using a magnetic device to prevent loss. The biotin-antibody was dispensed in 50 ul of each well and incubated at room temperature for 1 h in a shaker at 800±500 rpm. After washing, streptavidin-PE was added at 50 ul/well and incubated at room temperature for 30 min in a shaker under the same conditions. Finally, after washing, wash buffer (100 ul/well) was added to the plate and incubated in a shaker for 2 min. The Luminex™ 200 setting were set according to the manufacturer's protocol. The data was calculated with a standard five-parameter logistic nonlinear regression analysis of the data (xPonent software 4.2, USA). Results were presented as concentration (ng/ml or pg/ml).

TIMP-1 = experiment: Example 8 main study Luminex, LPS hPBMCs: TIMP-1; assay type: cell-based, human; settings: PBMC + LPS(5 ug/ml)
Protocol: as §1, §2, §3

[1] = PBMC + LPS(5 ug/ml) + test article 0.005 nM, Mean
[2] = PBMC + LPS(5 ug/ml) + test article 0.005 nM, individual replicates
[3] = PBMC + LPS(5 ug/ml) + test article 0.05 nM, Mean
[4] = PBMC + LPS(5 ug/ml) + test article 0.05 nM, individual replicates
[5] = PBMC + LPS(5 ug/ml) + test article 0.5 nM, Mean
[6] = PBMC + LPS(5 ug/ml) + test article 0.5 nM, individual replicates
[7] = PBMC + LPS(5 ug/ml) + test article 5 nM, Mean
[8] = PBMC + LPS(5 ug/ml) + test article 5 nM, individual replicates
[9] = PBMC + LPS(5 ug/ml) + test article 50 nM, Mean
[10] = PBMC + LPS(5 ug/ml) + test article 50 nM, individual replicates
[11] = PBMC + LPS(5 ug/ml) + test article 500 nM, Mean
[12] = PBMC + LPS(5 ug/ml) + test article 500 nM, individual replicates
[13] = PBMC + test article 0.5 nM, no LPS, Mean
[14] = PBMC + test article 0.5 nM, no LPS, individual replicates (1st, 2nd)
[15] = PBMC + test article 5 nM, no LPS, Mean
[16] = PBMC + test article 5 nM, no LPS, individual replicates (1st, 2nd)
[17] = PBMC + test article 0.05 uM, no LPS, Mean
[18] = PBMC + test article 0.05 uM, no LPS, individual replicates (1st, 2nd)
[19] = PBMC + test article 50 nM, no LPS, Mean
[20] = PBMC + test article 50 nM, no LPS, individual replicates (1st, 2nd)
[21] = PBMC + test article 500 nM, no LPS, Mean
[22] = PBMC + test article 500 nM, no LPS, individual replicates (1st, 2nd)

## CC(C)C[C@H](NC(=O)CNC(=O)[C@H](CC(=O)O)NC(=O)[C@H](CCC(N)=O)NC(=O)CNC(=O)[C@@H]1C[C@@H](O)CN1)C(=O)N[C@@H](C)C(=O)NCC(=O)N1CCC[C@H]1C(=O)N[C@@H](CCCCN)C(=O)O [YY-101] (H-[Hyp]GQDGLAGPK-OH; N-terminus and C-terminus assumed)
IL-1 beta/IL-1F2; [1]
  IL-1 beta/IL-1F2 Concentration: 5806.3 pg/mL
  IL-1 beta/IL-1F2 MFI: 105.2
IL-1 beta/IL-1F2; [2]
  IL-1 beta/IL-1F2 Concentration: 5975.0 pg/mL and 6004.7 pg/mL and 5439.3 pg/mL
  IL-1 beta/IL-1F2 MFI: 108.0 and 108.5 and 99.0
IL-1 beta/IL-1F2; [3]
  IL-1 beta/IL-1F2 Concentration: 6004.8 pg/mL
  IL-1 beta/IL-1F2 MFI: 108.5
IL-1 beta/IL-1F2; [4]
  IL-1 beta/IL-1F2 Concentration: 5736.8 pg/mL and 6511.1 pg/mL and 5766.6 pg/mL
  IL-1 beta/IL-1F2 MFI: 104.0 and 117.0 and 104.5
IL-1 beta/IL-1F2; [5]
  IL-1 beta/IL-1F2 Concentration: 6044.5 pg/mL
  IL-1 beta/IL-1F2 MFI: 109.2
IL-1 beta/IL-1F2; [6]
  IL-1 beta/IL-1F2 Concentration: 5736.8 pg/mL and 5975.0 pg/mL and 6421.7 pg/mL
  IL-1 beta/IL-1F2 MFI: 104.0 and 108.0 and 115.5
IL-1 beta/IL-1F2; [7]
  IL-1 beta/IL-1F2 Concentration: 5875.9 pg/mL
  IL-1 beta/IL-1F2 MFI: 106.3
IL-1 beta/IL-1F2; [8]
  IL-1 beta/IL-1F2 Concentration: 5498.8 pg/mL and 5558.3 pg/mL and 6570.7 pg/mL
  IL-1 beta/IL-1F2 MFI: 100.0 and 101.0 and 118.0
IL-1 beta/IL-1F2; [9]
  IL-1 beta/IL-1F2 Concentration: 5608.2 pg/mL
  IL-1 beta/IL-1F2 MFI: 101.8
IL-1 beta/IL-1F2; [10]
  IL-1 beta/IL-1F2 Concentration: 5201.4 pg/ml (2×) and 6421.7 pg/ml
  IL-1 beta/IL-1F2 MFI: 95.0 (2×) and 115.5
IL-1 beta/IL-1F2; [11]
  IL-1 beta/IL-1F2 Concentration: 5578.2 pg/mL
  IL-1 beta/IL-1F2 MFI: 101.3
IL-1 beta/IL-1F2; [12]
  IL-1 beta/IL-1F2 Concentration: 5260.9 pg/mL and 5915.4 pg/mL and 5558.3 pg/mL
  IL-1 beta/IL-1F2 MFI: 96.0 and 107.0 and 101.0
IL-1 beta/IL-1F2; [13]
  IL-1 beta/IL-1F2 Concentration: 391.1 pg/mL
  IL-1 beta/IL-1F2 MFI: 13.5
IL-1 beta/IL-1F2; [14]
  IL-1 beta/IL-1F2 Concentration: 362.0 pg/mL and 420.1 pg/mL
  IL-1 beta/IL-1F2 MFI: 13.0 and 14.0
IL-1 beta/IL-1F2; [15]
  IL-1 beta/IL-1F2 Concentration: 391.1 pg/mL
  IL-1 beta/IL-1F2 MFI: 13.5
IL-1 beta/IL-1F2; [16]
  IL-1 beta/IL-1F2 Concentration: 362.0 pg/mL and 420.1 pg/mL
  IL-1 beta/IL-1F2 MFI: 13.0 and 14.0
IL-1 beta/IL-1F2; [17]
  IL-1 beta/IL-1F2 Concentration: 420.1 pg/mL
  IL-1 beta/IL-1F2 MFI: 14.0
IL-1 beta/IL-1F2; [18]
  IL-1 beta/IL-1F2 Concentration: 420.1 pg/mL
  IL-1 beta/IL-1F2 MFI: 14.0
IL-1 beta/IL-1F2; [19]
  IL-1 beta/IL-1F2 Concentration: 362.0 pg/mL
  IL-1 beta/IL-1F2 MFI: 13.0
IL-1 beta/IL-1F2; [20]
  IL-1 beta/IL-1F2 Concentration: 362.0 pg/mL
  IL-1 beta/IL-1F2 MFI: 13.0
IL-1 beta/IL-1F2; [21]
  IL-1 beta/IL-1F2 Concentration: 420.1 pg/mL
  IL-1 beta/IL-1F2 MFI: 14.0
IL-1 beta/IL-1F2; [22]
  IL-1 beta/IL-1F2 Concentration: 420.1 pg/mL
  IL-1 beta/IL-1F2 MFI: 14.0
TIMP-1; test article 0.005 nM
  TIMP-1 Concentration (pg/ml), Mean: 3912.8 pg/mL
  TIMP-1 Concentration (pg/ml), single replicates: 4259.2 pg/ml (2×) and 3220.1 pg/ml
TIMP-1; test article 0.05 nM
  TIMP-1 Concentration (pg/ml), Mean: 3820.5 pg/mL
  TIMP-1 Concentration (pg/ml), single replicates: 3935.4 pg/ml (2×) and 3590.9 pg/ml
TIMP-1; test article 0.5 nM
  TIMP-1 Concentration (pg/ml), Mean: 4128.5 pg/mL
  TIMP-1 Concentration (pg/ml), single replicates: 3935.4 pg/mL and 3590.9 pg/mL and 4859.3 pg/mL
TIMP-1; test article 5 nM
  TIMP-1 Concentration (pg/ml), Mean: 3696.9 pg/mL
  TIMP-1 Concentration (pg/ml), single replicates: 3935.4 pg/ml (2×) and 3220.1 pg/ml
TIMP-1; test article 50 nM
  TIMP-1 Concentration (pg/ml), Mean: 3696.9 pg/mL
  TIMP-1 Concentration (pg/ml), single replicates: 3935.4 pg/ml (2×) and 3220.1 pg/ml
TIMP-1; test article 500 nM
  TIMP-1 Concentration (pg/ml), Mean: 3696.9 pg/mL
